The source of these data is PubChem BioAssay AID489032 (Sanford-Burnham Center for Chemical Genomics, 2010).

The source made the active and inactive calls. How the calls were made is not given here. Where only a bound is given, the exact number is not on record here.

The EC50 is the concentration needed to bring the measured effect to its halfway point.

The test system of the assay is UPR adaptive arm reporter cells, luciferase luminescence. Nature of the assay: adaptive unfolded protein response reporter activation – cell-based, luciferase luminescence, dose response (AID 489032).

Regarding `COc1cc(/C=C2\CC(C(C)(C)C)C/C(=C\c3cc(OC)c(OC)c(OC)c3)C2=O)cc(OC)c1OC` (centres undefined), the EC50 is 39.3 µM (inactive).

For `NS(=O)(=O)c1ccc(N/N=C/c2cn(-c3ccccc3)nc2-c2cccs2)c([N+](=O)[O-])c1`, the EC50 was > 80 µM (inactive).

As for `COc1ccccc1CCNC(=O)C1CCN(c2nnc(C)c3c(C)n(-c4ccc(C)cc4)nc23)CC1`, the 50% effective concentration (EC50) was 17.8 µM.

With `CC(NCC(O)COCCC12CC3CC(CC(C3)C1)C2)c1ccccc1` (centres undefined), the EC50 was > 80 µM (inactive).

Regarding `Cc1ccc(-c2[nH]ncc2/C=N/n2c(COc3ccccc3)nc3ccccc3c2=O)cc1`, the EC50 is > 80 µM (inactive).

For `O=C(Nc1ccc([N+](=O)[O-])cc1)c1nc[nH]c1C(=O)NC1CCCCC1`, the EC50 was > 80 µM (inactive).

As for `OCCCn1c(C2CCCN2c2nc(-c3ccc(Cl)cc3)cs2)nc2cc(Cl)c(N3CCCCC3)cc21` (centres undefined), the EC50 is > 80 µM (inactive).

With `CCCc1nc2ccccc2c(=O)n1/N=C/c1ccc(O)c(O)c1`, the EC50 is > 80 µM (inactive).

As to `CC1(C)CC(=O)C(C=Nc2ccc(C(=O)c3ccccc3)cc2N=CC2=C(O)CC(C)(C)CC2=O)=C(O)C1`, the EC50 was > 80 µM (inactive).

`COc1cc([C@H]2c3[nH]c4ccccc4c3C[C@H]3C(=O)N4[C@@H](c5cc(OC)c(OC)c(OC)c5)c5[nH]c6ccccc6c5C[C@H]4C(=O)N23)cc(OC)c1OC`: the EC50 was 12.1 µM.

With `Cc1c(O)cc2c(c1O)C(=O)CC(c1ccccc1)O2` (centres undefined), the EC50 is 10.8 µM.

`CCOC(=O)/C(=C\c1ccccc1)C(=O)c1cc(C(C)=O)c(Nc2ccccc2)s1`: the EC50 is > 80 µM (inactive).

`Cc1nc(NC(=O)c2cc3c(C)nn(-c4ccccc4)c3s2)sc1C(=O)Nc1ccccc1`: the EC50 was 41.3 µM (inactive).

As to `CN(C)CC(CCC(CN(C)C)C(O)(c1ccccc1)c1ccccc1)C(O)(c1ccccc1)c1ccccc1` (centres undefined), the EC50 was > 80 µM (inactive).

In the case of `COc1cccc(C(=O)Oc2cc3c4c(c2)C(C)=CC(C)(C)N4C(=O)C3=O)c1`, the EC50 was 19.6 µM.

As to `O=C(Cn1c2ccccc2c(=O)c2cc([N+](=O)[O-])ccc21)Nc1ccccc1Cl`, the EC50 is > 80 µM (inactive).

Consider `COc1ccc2cc(C)c3nnc(SCC(=O)Nc4nc(-c5ccc(F)cc5)cs4)n3c2c1`, for which the EC50 is 23.7 µM (inactive).

Regarding `c1ccc(N=Nc2ccc3cccccc2-3)cc1`, the EC50 is > 80 µM (inactive).

In the case of `CCOc1cc(/C=N/N=C(/N)c2nonc2N)cc(Br)c1OCc1ccc(Cl)cc1`, the EC50 was > 80 µM (inactive).

With `Cc1cc(NC(=O)CSc2ccc(-c3nc4cc(C)c(C)cc4[nH]3)cn2)no1`, the EC50 is > 80 µM (inactive).

Take `CCC(Sc1nnc2c3ccccc3n(CC)c2n1)C(=O)Nc1sc2c(c1C#N)CCCC2` (centres undefined): the EC50 was 16.5 µM.

Turning to `Cc1ccc(C2=Nc3ccc(Br)cc3C(c3ccncc3)=NN2)cc1`, the EC50 is 24 µM (inactive).

`CC(C)Cn1c2c(c(=O)[nH]c1=O)C(C(F)(F)F)(C(F)(F)F)N=C(CCC1CCCCC1)N2`: the EC50 is > 80 µM (inactive).

Regarding `CCN(CC)c1ccc(/C=C/[N+](=O)[O-])cc1`, the EC50 was 19.4 µM.

Regarding `COc1cc(NC(=O)c2ccc(C)cc2C)ccc1NC(=O)c1cc2ccccc2o1`, the EC50 was > 80 µM (inactive).

For `O=c1[nH]c(CSc2ncnc3sc(-c4ccccc4)cc23)nc2ccccc12`, the EC50 is > 80 µM (inactive).

Take `FC(F)(F)c1nnc2c(Sc3ccc(Cl)cc3)nc3ccccc3n12`: the EC50 was > 80 µM (inactive).

Take `CC1CN(S(=O)(=O)c2ccc(C(=O)Nc3nc(-c4cc5ccccc5o4)cs3)cc2)CC(C)O1` (centres undefined): the EC50 was > 80 µM (inactive).

`Cc1ccc(-n2nc3cc(C)c(NC(=S)NC(=O)/C=C/c4ccco4)cc3n2)cc1`: the EC50 was 35.9 µM (inactive).

Consider `Cc1ccc(Cn2c(SCC(=O)Nc3cc(C)on3)nc3ccccc3c2=O)cc1`, for which the EC50 was > 80 µM (inactive).

On to `CN(C)CCCNC(=O)c1ccc(-c2nc(-c3ccc(Cl)cc3)cs2)cc1`, for which the EC50 was > 80 µM (inactive).

`COc1ccc2cc1Oc1ccc(cc1)C[C@H]1c3c(cc(OC)c4c3Oc3c(ccc5c3[C@H](C2)N(C)CC5)O4)CCN1C`: the EC50 was > 80 µM (inactive).

Turning to `CCCCNC(=O)c1ccc(Cn2c(=S)[nH]c3c([nH]c4ccc(OC)cc43)c2=O)cc1`, the EC50 is > 80 µM (inactive).

As to `CCOC(=O)c1c(NC(=O)CNC2CCCc3ccccc32)sc(C(N)=O)c1C` (centres undefined), the EC50 was > 80 µM (inactive).

As to `COc1ccc(-c2csc(C3=C(O)CN(Cc4ccc(Cl)cc4)C3=N)n2)cc1OC`, the EC50 was > 80 µM (inactive).

On to `COc1ccc(NC(=O)c2sc3nc(N4CCOCC4)c4c(c3c2N)CC(C)(C)OC4)c(OC)c1`, for which the EC50 is > 80 µM (inactive).

As for `COc1cc(OC)c2c(-c3cccc(-c4ccc(CO)cc4)c3)cc(=O)oc2c1`, the EC50 was > 80 µM (inactive).

As to `O=C1NC(=O)N(Cc2ccccc2)C(=O)/C1=C\c1ccco1`, the EC50 is > 80 µM (inactive).

On to `COc1ccc(-c2csc(NC(=S)NC(=O)/C=C/c3ccccc3)n2)cc1Br`, for which the EC50 was 13.2 µM.

Consider `COc1c(Cl)cc(Cl)cc1/C=N/NC(=O)c1nnn(-c2nonc2N)c1CN1CCC(C)CC1`, for which the EC50 was 50 µM (inactive).

As for `COc1cc(/C=C/c2ccc3cccc(O)c3n2)ccc1O`, the EC50 was > 80 µM (inactive).

With `C/C(=N/NC(=O)c1ccc(Cl)s1)c1ccc(NC(=O)COc2ccc(Cl)cc2)cc1`, the EC50 is > 80 µM (inactive).

Regarding `C=CCOc1ccc2cccc(/C=N/NC(=O)c3cc4cc([N+](=O)[O-])ccc4s3)c2c1`, the EC50 is 43.5 µM (inactive).

In the case of `Cc1cnc(NC(=O)c2cc(S(=O)(=O)N(C)C)ccc2N2CCCC2)s1`, the 50% effective concentration (EC50) was 6.6 µM.

As for `O=C(NCCC1=CCCCC1)C(=O)NCC(c1ccco1)N1CCN(c2ccc(F)cc2)CC1` (centres undefined), the EC50 was > 80 µM (inactive).

In the case of `COc1cc(/C=N/NC(N)=O)c(Br)cc1OCC(=O)Nc1ccccc1C`, the EC50 is > 80 µM (inactive).

As to `CCc1cc2c(C)ccc(C)c2nc1SCC(=O)Nc1c[nH]c(=O)[nH]c1=O`, the EC50 was > 80 µM (inactive).

On to `Cc1ccc(NC(=O)CSc2nc3ccccc3c3nc4ccccc4n23)cc1`, for which the EC50 was 7.77 µM.

For `COc1ccc(/C=N/Nc2cc(C)nc3ccc(Br)cc23)cc1`, the EC50 was > 80 µM (inactive).

Regarding `Cc1cccc(N2CCN(C(=S)Nc3ccc4nc(N5CCN(C)CC5)cc(C)c4c3)CC2C)c1` (centres undefined), the EC50 is > 80 µM (inactive).

In the case of `CC1CCC(C(C)C)C(OC(=O)Cn2c(-c3ccc(Br)cc3)[n+](C)c3ccccc32)C1` (centres undefined), the EC50 is > 80 µM (inactive).

As for `O=c1oc(CCCO)cc2ccc(/C=C/c3cccc([N+](=O)[O-])c3)cc12`, the EC50 is 36.8 µM (inactive).

For `CCCCN(CC)S(=O)(=O)c1ccc(C(=O)N=c2sc3cc(NC(C)=O)ccc3n2C)cc1`, the EC50 was 5.4 µM.

Regarding `Cc1ccc2nc(/C(C#N)=C/c3ccc(O)c(O)c3)[nH]c2c1`, the EC50 is > 80 µM (inactive).

With `O=C(N/N=C/c1ccc(O)c(O)c1)c1ccc(CSc2cccc3cccnc23)cc1`, the EC50 was > 80 µM (inactive).

`CCOc1ccc(S(=O)(=O)Nc2cccc(C(=O)NCC3(N4CCCCC4)CCCCC3)c2)cc1`: the EC50 is 15.3 µM.

As for `COc1ccc(OC)c(-c2nnc3n2N=C(c2ccc(OC)c(OCC4CC4)c2)CS3)c1`, the EC50 was > 80 µM (inactive).

For `CCOC(=O)c1cc(NC(=O)c2ccc(Cl)cc2)c(=O)n2c1oc1ccc(Cl)cc12`, the EC50 is > 80 µM (inactive).

Regarding `O=C(/C=C\c1cn(-c2ccccc2)nc1-c1ccccc1)Nc1nccs1`, the EC50 was > 80 µM (inactive).

With `COc1cccc2sc(N3CCN(c4nc5ccccc5s4)CC3)nc12`, the EC50 is > 80 µM (inactive).

Take `COc1ccc2oc(-c3ccc(C)c(NC(=O)c4ccc(N5CCOCC5)c([N+](=O)[O-])c4)c3)nc2c1`: the EC50 was > 80 µM (inactive).

On to `O=C(C[C@@H]1C/C=C/CC[C@H](Cc2ccc(F)cc2)C(=O)OC[C@@H](Cc2ccccc2)NC1=O)N[C@H](CO)Cc1ccccc1`, for which the EC50 is 18.8 µM.

For `COc1ccc2[nH]c3c(c2c1)CCN1C(=O)C(CC(=O)NC/C=C(\C)CCC=C(C)C)C[C@H](C(=O)N(C(C)C)C(C)C)[C@@]31C` (some centres undefined), the EC50 was 60.1 µM (inactive).

With `Cc1ccc2c(n1)sc1c(-c3ccc(Br)cc3)c(C#N)c(N)nc12`, the EC50 is > 80 µM (inactive).

Turning to `NS(=O)(=O)c1ccc(N=Cc2c(O)n(C3CCCCC3)c(=O)n(C3CCCCC3)c2=O)cc1`, the EC50 was > 80 µM (inactive).

Regarding `Cc1nc2cc(NC(=O)CSc3nc4c(C)cccc4cc3C#N)ccc2s1`, the EC50 was > 80 µM (inactive).

With `CCC[C@@H](CN[C@@H](CNC)[C@H](C)CC)NCC1CCC(C(C)(C)C)CC1` (some centres undefined), the EC50 was > 80 µM (inactive).

`COc1ccc(-n2c(C)cc(C(=O)CCl)c2C)cc1`: the EC50 was > 80 µM (inactive).

Take `C=CCN1C(=O)/C(=C2/Sc3ccc(OC)cc3N2C)SC1=Nc1cccc(O)c1`: the EC50 is > 80 µM (inactive).

Take `COc1cc(C(=O)Nc2nc(-c3ccc(Cl)cc3)c(C)s2)ccc1OCC(=O)Nc1ccc(F)cc1`: the EC50 is > 80 µM (inactive).

With `COc1ccc(Cn2c(SCc3cc(C)ccc3C)nc3cc(OC)c(OC)cc3c2=N)cc1`, the EC50 was > 80 µM (inactive).

In the case of `Cc1ccc(-c2nc(N/N=C/c3cccc([N+](=O)[O-])c3)c3ccccc3n2)cc1`, the EC50 was > 80 µM (inactive).

With `Cc1ccc(C(C(=O)NCc2ccco2)N(C(=O)CNC(=O)c2cccs2)c2c(C)cc(C)cc2C)cc1` (centres undefined), the EC50 was > 80 µM (inactive).

For the compound `CCCCCCCCCn1c2c(c(=N)c3c1CCC3)CCCC2`, the EC50 was 25.6 µM (inactive).

In the case of `Oc1ccc(/C=N/Nc2ncnc3c2ncn3Cc2ccccc2)cc1O`, the EC50 is 11 µM.

With `Cn1nnnc1Sc1ncnc2scc(-c3ccc(Cl)cc3)c12`, the EC50 was > 80 µM (inactive).

As to `Cc1ccc2nc(Nc3nc(C)cc(-c4ccccc4)n3)[nH]c(=O)c2c1`, the EC50 was > 80 µM (inactive).

On to `Cc1ccc(C)c(N=Cc2c(O)c3ccccc3oc2=O)c1`, for which the EC50 is 37.1 µM (inactive).

As to `Oc1ccc(CN2CCC(Cc3ccccc3)CC2)c2cccnc12`, the EC50 was > 80 µM (inactive).
